Values joined by “and” are separate entries in the source; they are usually repeats but may differ in a detail not shown here. Identical values can stand only once. “Also recorded” adds a separate entry of the source. Like-named read-outs stand apart in the source and are kept apart here.
What was measured:
[1] = Analgesic, antipyretic and antiinflammatory activity; type: in vivo; conditions: versus the starting acid
[2] = Pharmacokinetics from plasma levels after oral, rectal and intramuscular administration in rabbits; type: in vivo, rabbit
Method: (§1) The following pharmacological experimentation was carried out in order to estimate the comparative absorption and bioavailability through various administration routes in rabbits of Alclofenac acid and its lysine salt.

[3] = Stability and hygroscopicity; type: physicochemical
rat leg = assay: Tolerability by volume increase of rat leg versus commercial injectable preparations; type: in vivo; conditions: FIG. 1
Description: This type of preparation was estimated also in comparison with commercially available injectable preparations according to the method of volume increase of rat leg and results are shown in FIG. 1 of the drawings.

Solubility = type: physicochemical; conditions: in words, solvent as stated
[4] = Extent of availability after different routes, intravenous administration as reference; type: in vivo, rabbit
Method: as §1

[5] = General tolerability by route of administration; type: in vivo
[6] = Pharmacokinetics after i.v. injection in rabbits; type: in vivo, rabbit; conditions: i.v. 90 mg/kg (as acid)
Method: as §1

pH of aqueous solution = type: physicochemical
[7] = system: rabbit dorsal long muscle; assay: Local tolerability after intramuscular injection, muscle removed at 24 hours, irritation by arbitrary scores; type: in vivo; set-up: scale not given here
Method: Such a tolerability was estimated after injection of equivalent solutions of the various preparations, effected in the rabbit dorsal long muscle, removing muscle 24 hours after injection and estimating the degree of induced irritation through arbitrary scores.

[8] = INTRAMUSCOLAR 80 mg/kg, ± E.S.M.
[9] = P.OS 90 mg/kg, ± E.S.M., listed as Lysine Salt
[10] = P.OS 90 mg/kg, ± E.S.M., listed as Lysine Salt, 90 mg/kg
[11] = RECTAL 100 mg/kg, ± E.S.M., listed as Lysine Salt
[12] = RECTAL 100 mg/kg, ± E.S.M., listed as Lysine Salt, 100 mg/kg
[13] = rabbit, plasma, im, 80 mg/kg, INTRAMUSCOLAR 80 mg/kg, ± E.S.M.
[14] = individual, in order Rabbit I, II, III, IV, 90 mg/kg
[15] = 100 mg/ml (as acid), 0.5 ml injected
[16] = 131 mg/ml (as acid), 0.25 ml injected

C=CCOc1ccc(CC(=O)O)cc1Cl [Alclofenac-Lysine, lysine 4-allyloxy-3-chlorophenylacetate]
analgesic, antipyretic and antiinflammatory properties [1]: equal or even superior to those of the starting acid | Ka [2, 8]: 0.0131 ± 0.0031 min⁻¹ | t1/2α [2, 8]: 1 ± 0.183 h | Ka [2, 9]: 0.0174 ± 0.0047 min⁻¹ | t1/2α [2, 9]: 0.616667 ± 0.13333 h | Cmax [2, 10]: 454.5 ± 152.2 µg/mL | Kel [2, 10]: 0.0023 ± 0.0005 min⁻¹ | Tmax [2, 10]: 2.18 ± 0.467 h | Vdβ [2, 10]: 0.301 ± 0.050 L/kg | t1/2β [2, 10]: 6.28 ± 1.53 h | Ka [2, 11]: 0.132 ± 0.032 min⁻¹ | t1/2α [2, 11]: 0.13 ± 0.05 h | CL [2, 12]: 0.55 ± 0.03 mL/kg | Cmax [2, 12]: 473.7 ± 24.1 µg/mL | Kel [2, 12]: 0.0026 ± 0.0004 min⁻¹ | Tmax [2, 12]: 0.65 ± 0.183 h | Vdβ [2, 12]: 0.248 ± 0.072 L/kg | t1/2β [2, 12]: 4.47 ± 1.18 h | intramuscular absorption velocity, in words ([2]; intramuscular, versus per os): may be compared with that per os | intramuscular blood levels, in words ([2]; intramuscular, versus per os): instantaneous and sustained blood levels are lower | absorption velocity ([2]; oral and rectal route): higher absorption velocity even through the oral and rectal route | absorption, in words ([2]; oral and rectal route, rabbits, listed as Lysine Salt): absorbed faster and to a higher extent in comparison with the acidic substance | CL/F [2, 13]: 0.67 ± 0.06 mL/min/kg | k el [2, 13]: 1.17e-05 s⁻¹ | Cmax ([2]; rabbit, plasma, im, 80 mg/kg, INTRAMUSCOLAR 80 mg/kg, ± E.S.M., read-out: Cmax): 144 ± 30 µg/mL | Vd/F ([2]; rabbit, plasma, im, 80 mg/kg, INTRAMUSCOLAR 80 mg/kg, ± E.S.M., read-out: Vdβ): 0.607 ± 0.09 L/kg | half-life ([2]; rabbit, plasma, im, 80 mg/kg, INTRAMUSCOLAR 80 mg/kg, ± E.S.M., read-out: t1/2β): 23.4 ± 6.3 h | Tmax ([2]; rabbit, plasma, im, 80 mg/kg, INTRAMUSCOLAR 80 mg/kg, ± E.S.M., read-out: tmax (converted)): 4.62 h | Stability of the solution ([3]; in words, listed as compound (1)): perfectly stable | Hygroscopicity ([3]; isolated solid): non-hygroscopic | tolerability versus Mervan (rat leg): better more tolerated than a commercially available preparation | Solubility (Solubility): soluble in biological fluids; also recorded: extremely soluble in water and alcohols; also recorded: insoluble in acetone | Solubility (Solubility; listed as compound (1)): very soluble in water and alcohols; also recorded: insoluble in acetone | % Availability (AUC o → 2h) ([4]; I.V. 90 mg/kg, 0-2 h, reference): 100% | % Availability (AUC o → 4h) ([4]; I.V. 90 mg/kg, 0-4 h, reference): 100% | % Availability (practical AUC) ([4]; I.V. 90 mg/kg, reference): 100% | % Availability (theoretical AUC) ([4]; I.V. 90 mg/kg, reference): 100% | bioavailability at 2 h ([4]; rabbit, plasma, 100 mg/kg, Rectal 100 mg/kg, 0-2 h, i.v. as reference, read-out: % Availability (AUC o → 2h)): 95.7% | bioavailability ([4]; rabbit, plasma, 100 mg/kg, Rectal 100 mg/kg, i.v. as reference, read-out: % Availability (practical AUC)): 100% | bioavailability ([4]; rabbit, plasma, 100 mg/kg, Rectal 100 mg/kg, i.v. as reference, read-out: % Availability (theoretical AUC)): 89.2% | bioavailability ([4]; rabbit, plasma, im, 80 mg/kg, I.M. 80 mg/kg, i.v. as reference, read-out: % Availability (practical AUC)): 95.4% | bioavailability ([4]; rabbit, plasma, im, 80 mg/kg, I.M. 80 mg/kg, i.v. as reference, read-out: % Availability (theoretical AUC)): 155% | bioavailability at 4 h ([4]; rabbit, plasma, po, 90 mg/kg, P.O. 90 mg/kg, 0-4 h, i.v. as reference, read-out: % Availability (AUC o → 4h)): 58.1% | bioavailability ([4]; rabbit, plasma, po, 90 mg/kg, P.O. 90 mg/kg, i.v. as reference, read-out: % Availability (practical AUC)): 88.5% | bioavailability ([4]; rabbit, plasma, po, 90 mg/kg, P.O. 90 mg/kg, i.v. as reference, read-out: % Availability (theoretical AUC)): 82.7% | tolerability on injection ([5]; intravenous or intramuscular): well tolerated after either intravenous or intramuscular administration | tolerability per os ([5]; oral): better tolerated per os; also recorded: better tolerance | A ([6]; MEAN ± S.E.M. of 4 rabbits): 165.7 ± 16.6 µg/mL | B ([6]; MEAN ± S.E.M. of 4 rabbits): 293.5 ± 14.2 µg/mL | K12 ([6]; MEAN ± S.E.M. of 4 rabbits): 0.027 ± 0.003 min⁻¹ | K21 ([6]; MEAN ± S.E.M. of 4 rabbits): 0.053 ± 0.009 min⁻¹ | α ([6]; MEAN ± S.E.M. of 4 rabbits): 0.082 ± 0.011 min⁻¹ | A [6, 14]: 170.51 µg/mL and 151.04 µg/mL and 209.59 µg/mL and 131.86 µg/mL | B [6, 14]: 269.19 µg/mL and 324.95 µg/mL and 269.89 µg/mL and 310.16 µg/mL | CL [6, 14]: 0.56 mL/min/kg and 0.63 mL/min/kg and 0.36 mL/min/kg and 0.74 mL/min/kg | K12 [6, 14]: 0.030 min⁻¹ and 0.034 min⁻¹ and 0.028 min⁻¹ and 0.018 min⁻¹ | K21 [6, 14]: 0.051 min⁻¹ and 0.078 min⁻¹ and 0.038 min⁻¹ and 0.047 min⁻¹ | Kel [6, 14]: 0.0033 min⁻¹ and 0.0019 min⁻¹ and 0.0036 min⁻¹ | Vdβ [6, 14]: 0.274 L/kg and 0.329 L/kg and 0.285 L/kg | t1/2α [6, 14]: 6 min and 10.5 min (2×) | t1/2β [6, 14]: 6.8 h and 5.02 h and 10.5 h and 4.43 h | α [6, 14]: 0.083 min⁻¹ and 0.113 min⁻¹ and 0.067 min⁻¹ and 0.066 min⁻¹ | β [6, 14]: 0.0017 min⁻¹ and 0.0023 min⁻¹ and 0.0011 min⁻¹ and 0.0026 min⁻¹ | k el ([6]; rabbit, in vivo, iv, 90 mg/kg, MEAN ± S.E.M. of 4 rabbits, read-out: β (converted)): 3.17e-05 s⁻¹ | clearance ([6]; rabbit, plasma, iv, 90 mg/kg, MEAN ± S.E.M. of 4 rabbits): 0.57 ± 0.08 mL/min/kg | k el ([6]; rabbit, plasma, iv, 90 mg/kg, MEAN ± S.E.M. of 4 rabbits, read-out: Kel (converted)): 4.83e-05 s⁻¹ | Vd ([6]; rabbit, plasma, iv, 90 mg/kg, MEAN ± S.E.M. of 4 rabbits, read-out: Vdβ): 0.304 ± 0.015 L/kg | half-life ([6]; rabbit, plasma, iv, 90 mg/kg, MEAN ± S.E.M. of 4 rabbits, read-out: t1/2α): 0.15 ± 0.0167 h | half-life ([6]; rabbit, plasma, iv, 90 mg/kg, MEAN ± S.E.M. of 4 rabbits, read-out: t1/2β): 6.68 ± 1.35 h | Vd ([6]; rabbit, plasma, iv, 90 mg/kg, MEAN ± S.E.M. of 4 rabbits, read-out: √1): 0.196 ± 0.005 L/kg | Vd ([6]; rabbit, plasma, iv, 90 mg/kg, MEAN ± S.E.M. of 4 rabbits, read-out: √2): 0.392 ± 0.06 L/kg | k el ([6]; rabbit, plasma, iv, 90 mg/kg, individual, in order Rabbit I, II, III, IV, read-out: Kel (converted)): 4.5e-05 s⁻¹ | Vd ([6]; rabbit, plasma, iv, 90 mg/kg, individual, in order Rabbit I, II, III, IV, read-out: Vdβ): 0.33 L/kg | half-life ([6]; rabbit, plasma, iv, 90 mg/kg, individual, in order Rabbit I, II, III, IV, read-out: t1/2α): 0.142 h | Vd ([6]; rabbit, plasma, iv, 90 mg/kg, individual, in order Rabbit I, II, III, IV, read-out: √1): 0.205 L/kg | pH value of the 10% aqueous solution (pH of aqueous solution; 10% aqueous solution): 7.7 | pH of 25% parts/volume aqueous solution (pH of aqueous solution; 25% parts/volume, specification): 7.4-7.8 | SCORES at 24 hours, Average [7, 15]: 2.3 | SCORES at 24 hours, Average [7, 16]: 2.6 | SCORES at 24 hours, individual [7, 15]: 2 (2×) and 3 | SCORES at 24 hours, individual [7, 16]: 2 and 3 and 4 (2×) and 0

Reference: patent US4189499A, “Lysine 4-allyloxy-3-chlorophenylacetate and method of its preparation” (priority 1979, dated 1980)
